Results published in patent US5989198A, “Use of capillary electrophoresis to determine glomerular filtration rate using iothalamate” (Mayo Foundation for Medical Education and Research, priority 1997, dated 1999).
Read-outs that look alike come from different tables or passages of the source.

Tests used:
[1] = cited from earlier work
[2] = urine diluted with 5 mM borate; cited from earlier work
[3] = GFR by capillary electrophoresis of non-isotopic (cold) iothalamate meglumine, timed urine and average of 2 plasma samples after subcutaneous injection; format: in vivo, human; settings: for mean GFR: capillary electrophoresis
Method: Prior to the test, patients were given 3 drops of a saturated solution of potassium iodide in 20 mis of water to prevent thyroid uptake of the small amount of free ^125 I-iothalamate and to protect patients from radiation exposure to the thyroid. They were also given a single subcutaneous injection of 0.5 mls of iothalamate meglumine (Conray®) (300 mg) diluted 1:1 with distilled water. Patients who professed an allergy to iodine were not included in this study, nor were patients who had been given an angiographic dye in the previous 24 hours.
On the day of the appointment, the patient ate nothing for 4 hours preceding the test (diabetics 2 hours) and drank 4 glasses of water in the hour preceding the test. They were also instructed not to void within 45 minutes of their appointment time. Patients were given oral hydration of 200 mls/per hour throughout the test.
Prior to injection, urine (U0) and blood plasma (P0) samples were obtained to assess for drug interferences. After subcutaneous injection of the two different GFR markers, a 45-minute equilibration period allowed blood levels to peak and become stable or fall as previously described for 125I subcutaneous iothalamate clearances by N. T. Ott et al., Mayo Clin. Proc., 50, 664 (1975), for ^125 I-iothalamate. This sampling method was adapted from studies reported by Israelit et al. for ^125 I-iothalamate, in Kid. […] After the 45 minute equilibration period, 7 ml of blood (P1) and a urine sample (UE) were collected and time (T0) was recorded. […] Bladder emptying was assessed by monitoring with a Diagnostic Ultrasound bladder scanner (Model No. 2500). […]
The patient was moved to a waiting room and returned to the laboratory after 45 to 60 minutes when the urge to void became apparent. Second blood (P2) and urine (U1) samples were collected, urine volume was recorded, and bladder emptying monitored. Adequacy of the test was confirmed if the bladder was empty (<10 ml or <10% of voided volume on scanner readout), and a minimum of 100 mls of urine was voided during the test. The timed urine (U1) and bloods (P1 and P2) were analyzed by CE. […]

mean GFR ([3]; initial patient group, before vortexing of ultrafiltrate) | range of GFR's over which CE and isotope methods correlated ([3]; initial patients (one hundred), s.c. injection) | mean GFR ([3]; second group of 31 patients, ultrafiltrate vortexed) | Compound | GFR - Range of Normal ([1]; AGE 18-22) | GFR - Range of Normal ([1]; AGE 23-27) | GFR - Range of Normal ([1]; AGE 28-32) | GFR - Range of Normal ([1]; AGE 33-37) | GFR - Range of Normal ([1]; AGE 38-42) | GFR - Range of Normal ([1]; AGE 43-47) | GFR - Range of Normal ([1]; AGE 48-52) | GFR - Range of Normal ([1]; AGE 53-57) | GFR - Range of Normal ([1]; AGE 58-62) | GFR - Range of Normal ([1]; AGE >62) | sample stability, refrigerated [2]
 |  |  | CNC(=O)c1c(I)c(NC(C)=O)c(I)c(C(=O)O)c1I [Iothalamate] | > 90 ml/min/1.73 m^2 | > 88 ml/min/1.73 m^2 | > 86 ml/min/1.73 m^2 | > 84 ml/min/1.73 m^2 | > 82 ml/min/1.73 m^2 | > 80 ml/min/1.73 m^2 | > 78 ml/min/1.73 m^2 | > 75 ml/min/1.73 m^2 | > 73 ml/min/1.73 m^2 | > 70 ml/min/1.73 m^2 | at least 2 weeks
58 mls/min/1.73 M^2 | 9-103 mls/min/1.73 M^2 | 62 mls/min | CNC(=O)c1c(I)c(NC(C)=O)c(I)c(C(=O)O)c1I [iothalamate meglumine, 1-deoxy-1-(methylamino)-D-glucitol-5-acetamido-2,4,6,-triiodo-N-methylisophthalamate] |  |  |  |  |  |  |  |  |  |  | 
